Reference: patent US20200199127A1, “(HETERO)ARYLALKYLAMINO-PYRAZOLOPYRIDAZINE DERIVATIVES HAVING MULTIMODAL ACTIVITY AGAINST PAIN” (priority 2017, published 2020)

What was measured:
[1] = biological target: Human norepinephrine transporter (NET) (Homo sapiens, UniProt P23975); test: Binding assay to human norepinephrine transporter (NET), [3H]-Nisoxetin; conditions: human NET enriched membranes, 5 nM [3H]-Nisoxetin; Ki as class symbol
Description: Binding Assay to Human Norepinephrine Transporter (NET).
Human norepinephrine transporter (NET) enriched membranes (5 μg) were incubated with 5 nM of radiolabeled [3H]-Nisoxetin in assay buffer containing 50 mM Tris-HCl, 120 mM NaCl, 5 mM KCl, pH 7.4.
NSB (non specific binding) was measured by adding 10 μM of desipramine. The binding of the test compound was measured at five different concentrations.. After 60 min incubation at 4° C., binding reaction was terminated by filtering through Multiscreen GF/C (Millipore) presoaked in 0.5% polyethyleneimine in Vacuum Manifold Station, followed by 3 washes with ice-cold filtration buffer containing 50 mM Tris-HCl, 0.9% NaCl, pH 7.4.
Filter plates were dried at 60° C. for 1 hour and 30 μl of scintillation cocktail were added to each well before radioactivity reading.

[2] = biological target: Human α2δ-1 subunit of Cav2.2 calcium channel (Homo sapiens, UniProt P54289); test: Human α2δ-1 subunit of Cav2.2 calcium channel assay, [3H]-Gabapentin binding; conditions: human α2δ-1 enriched membranes, 15 nM [3H]-Gabapentin; Ki as class symbol
Chain of Human α2δ-1 subunit of Cav2.2 calcium channel (P54289 25-1103): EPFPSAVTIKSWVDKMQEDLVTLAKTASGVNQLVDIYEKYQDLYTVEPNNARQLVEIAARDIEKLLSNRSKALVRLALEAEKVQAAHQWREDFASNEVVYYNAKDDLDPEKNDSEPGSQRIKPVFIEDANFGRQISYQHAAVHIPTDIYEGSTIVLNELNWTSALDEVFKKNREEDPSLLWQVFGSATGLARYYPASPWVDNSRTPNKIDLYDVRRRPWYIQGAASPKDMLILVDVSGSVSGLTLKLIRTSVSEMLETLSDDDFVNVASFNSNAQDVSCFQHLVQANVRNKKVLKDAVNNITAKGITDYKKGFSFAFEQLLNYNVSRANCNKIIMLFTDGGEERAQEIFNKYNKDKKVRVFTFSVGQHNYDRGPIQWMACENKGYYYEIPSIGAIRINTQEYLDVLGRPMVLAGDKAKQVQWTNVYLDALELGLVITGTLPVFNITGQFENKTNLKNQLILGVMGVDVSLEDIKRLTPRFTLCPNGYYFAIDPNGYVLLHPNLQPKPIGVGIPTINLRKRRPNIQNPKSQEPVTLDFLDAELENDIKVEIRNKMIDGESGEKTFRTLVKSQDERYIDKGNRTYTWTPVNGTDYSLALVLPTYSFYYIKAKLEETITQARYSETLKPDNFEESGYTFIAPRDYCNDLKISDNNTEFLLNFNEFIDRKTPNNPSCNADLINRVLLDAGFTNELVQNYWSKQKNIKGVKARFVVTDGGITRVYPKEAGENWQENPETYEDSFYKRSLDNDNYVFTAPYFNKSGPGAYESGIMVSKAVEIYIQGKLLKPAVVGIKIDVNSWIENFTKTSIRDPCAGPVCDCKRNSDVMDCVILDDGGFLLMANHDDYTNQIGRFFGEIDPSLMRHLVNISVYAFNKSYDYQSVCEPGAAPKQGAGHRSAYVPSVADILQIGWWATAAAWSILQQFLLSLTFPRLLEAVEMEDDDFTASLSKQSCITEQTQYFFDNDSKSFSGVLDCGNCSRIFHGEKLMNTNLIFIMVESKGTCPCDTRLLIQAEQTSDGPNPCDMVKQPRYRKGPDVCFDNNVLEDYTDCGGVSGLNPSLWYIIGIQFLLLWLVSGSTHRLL
Description: Human α2δ-1 Subunit of Cav2.2 Calcium Channel Assay
Human α2δ-1 enriched membranes (2.5 μg) were incubated with 15 nM of radiolabeled [3H]-Gabapentin in assay buffer containing Hepes-KOH 10 mM, pH 7.4. NSB (non specific binding) was measured by adding 10 μM pregabalin. The binding of the test compound was measured at five different concentrations. After 60 min incubation at 27° C., binding reaction was terminated by filtering through Multiscreen GF/C (Millipore) presoaked in 0.5% polyethyleneimine in Vacuum Manifold Station, followed by 3 washes with ice-cold filtration buffer containing 50 mM Tris-HCl, pH 7.4. Filter plates were dried at 60° C. for 1 hour and 30 μl of scintillation cocktail were added to each well before radioactivity reading. Readings were performed in a Trilux 1450 Microbeta radioactive counter (Perkin Elmer).

Chain of Human norepinephrine transporter (NET) (P23975 whole entry): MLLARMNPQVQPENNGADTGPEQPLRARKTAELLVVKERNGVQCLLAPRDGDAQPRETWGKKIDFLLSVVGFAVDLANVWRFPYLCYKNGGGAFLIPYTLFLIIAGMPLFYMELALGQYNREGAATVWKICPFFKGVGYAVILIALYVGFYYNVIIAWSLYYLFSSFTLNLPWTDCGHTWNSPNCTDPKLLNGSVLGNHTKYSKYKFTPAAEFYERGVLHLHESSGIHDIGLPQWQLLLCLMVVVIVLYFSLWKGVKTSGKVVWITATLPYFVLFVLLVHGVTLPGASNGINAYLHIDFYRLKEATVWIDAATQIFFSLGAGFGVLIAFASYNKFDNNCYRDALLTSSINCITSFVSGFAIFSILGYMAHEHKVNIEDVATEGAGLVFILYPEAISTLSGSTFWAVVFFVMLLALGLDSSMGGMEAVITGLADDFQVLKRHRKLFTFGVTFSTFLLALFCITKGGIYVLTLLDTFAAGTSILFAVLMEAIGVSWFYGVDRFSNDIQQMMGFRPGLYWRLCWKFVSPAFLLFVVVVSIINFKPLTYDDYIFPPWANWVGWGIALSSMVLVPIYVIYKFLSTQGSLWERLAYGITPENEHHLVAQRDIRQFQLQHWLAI

- Ki [1]: > 1000 nM
- Ki [2]: ≥ 5000 nM
SMILES: Cc1nnc(N(C)Cc2ccccn2)c2nn(-c3ccc(O)cc3)c(C)c12 [Example 47, 4-(3,4-dimethyl-7-(methyl(pyridin-2-ylmethyl)amino)-2H-pyrazolo[3,4-d]pyridazin-2-yl)phenol]
